For series [1], the system named is AsPC-1 cells. The experiment in a line: AsPC-1 CTG proliferation assay (120 h). The conditions noted are these: Homo sapiens, ASPC1, pancreatic cancer, G12D. The class given is cell-based. The method, then: The CTG assay is designed to measure quantitatively the proliferation of AsPC-1 cells (ATCC […]), using the CellTiter Glow Assay Kit (Promega G7571). Cells are grown in RPMI medium (ATCC) supplemented with Fetal Calf Serum (Life Technologies, Gibco BRL, Cat. No. 10270-106). On “day 0” 2000 AsPC-1 cells are seeded in 60 μL RPMI ATCC+10% FCS+Penstrep in a 384-well plate, flat and clear bottom (Greiner, PNr. 781091). Cells are then incubated in the plates at 37° C. in a CO2 incubator overnight. On day 1, compounds (10 mM stock in DMSO) are added with the ECHO acoustic liquid handler system (Beckman Coulter), including DMSO controls. Plates are incubated for 120 h, and cell viability is measured using CellTiter-Glo luminescent cell viability reagent (Promega product code G7570). Viability (stated as percent of control) is defined as relative luminescence units RLU of each well divided by the RLU of cells in DMSO controls. IC50 values are determined from viability measurements by non-linear regression using a four-parameter model.

Series [2] deals with LOVO cells. The experiment in a line: LOVO CTG proliferation assay (120 h). The series is classed as cell-based. The conditions noted are these: Homo sapiens, CRC, G13D. The method, then:
(§1) LOVO cells (ATCC CCL-229) are dispensed into 384-well plates, flat and clear bottom (Greiner, PNr. 781091) at a density of 1000 cells per well in 60 μL DMEM (Sigma D6429)+10% Fetal Calf Serum (HyClone, PNr.: SH30084.03) and incubated at 37° C. in a CO2 incubator overnight. The next day, compounds (10 mM stock in DMSO) are added with the ECHO acoustic liquid handler system (Beckman Coulter), including DMSO controls. Plates are incubated for 120 h, and cell viability is measured using CellTiter-Glo luminescent cell viability reagent (Promega product code G7570). Viability (stated as percent of control) is defined as relative luminescence units RLU of each well divided by the RLU of cells in DMSO controls. IC50 values are determined from viability measurements by non-linear regression using a four-parameter model.

The target in series [3] is T1, KRAS (G12V) and SOS1 (Homo sapiens, UniProt P01116, C118S/G12V).
T1 construct: KRAS (G12V) 1-169, N-terminal 6His-tag for purification; 6His (N, cleaved yes); TEV cleavage site
T1 sequence (P01116 1-169 isoform P01116-2 G12V/C118S): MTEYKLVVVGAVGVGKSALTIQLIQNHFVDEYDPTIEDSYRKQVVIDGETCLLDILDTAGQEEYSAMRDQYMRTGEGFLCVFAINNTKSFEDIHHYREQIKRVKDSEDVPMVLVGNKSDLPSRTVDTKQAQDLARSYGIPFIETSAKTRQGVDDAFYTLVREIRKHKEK
The experiment in a line: KRAS::SOS1 AlphaScreen binding assay, KRAS G12V. As to the method:
Low IC50 values in this assay setting are indicative of strong inhibition of protein-protein interaction between SOS1 and KRAS:
These assays measure the inhibitory effect of compounds on KRAS mutant protein-protein interactions using the Alpha Screen technology by Perkin Elmer.
For the chosen highest assay concentration of 100 μM, 150 nL of compound solution are transferred from a 10 mM DMSO compound stock solution. A series of eleven fivefold dilutions per compound are transferred to the assay plate, compound dilutions are tested in duplicates. DMSO are added as backfill to a total volume of 150 nL.
The assays run on a fully automated robotic system in a darkened room below 100 Lux. To 150 nl of compound dilution 10 μl of a mix including KRAS mutant protein, SOS1 (final assay concentrations see above) and GDP nucleotide (Sigma G7127; final assay concentration 10 μM) in assay buffer (1×PBS, 0.1% BSA, 0.05% Tween 20) are added into columns 1-24. After 30 minutes incubation time 5 μl of Alpha Screen bead mix in assay buffer are added into columns 1-23.
Plates are kept at room temperature in a darkened incubator. After an additional 60 minutes incubation time the signal is measured in a PerkinElmer Envision HTS Multilabel Reader using the AlphaScreen specs from PerkinElmer.
IC50 values are calculated and analyzed with Boehringer Ingelheim's MEGALAB IC50 application using a 4 parametric logistic model.
For orientation: Alpha assays give light when donor and acceptor beads are brought close together.

The subject of series [4] is SK-CO-1 cells. The experiment in a line: SK-CO-1 CTG proliferation assay (120 h). The class given is cell-based. The conditions noted are these: Homo sapiens, CRC, G12V. As to the method:
as §1, with “SK-CO-1” for “LOVO”, “HTB-39)” for “CCL-229)”, “500” for “1000”, “EMEM” for “DMEM”, “M5650)+10%” for “D6429)+10%”

Series [5] is described as follows: Plasma protein binding assay (PPB), equilibrium dialysis. The conditions noted are these: bovine, 10% FCS in PBS, read-out: PPB 10% FCS (% fu). The series is classed as in vitro ADME. As to the method:
Binding of test compounds to plasma was determined using equilibrium dialysis (ED) and quantitative mass spectrometry interfaced with liquid chromatography (LC-MS). In brief, ED was performed with dialysis devices consisting of two chambers separated by a semipermeable membrane with a molecular weight cut-off of 5-10 kg/mol. One chamber was filled with 10% FCS in PBS containing 1-10 μmol/L test compound and the other chamber was filled with phosphate-buffer saline (PBS) with or without dextran. The dialysis chamber was incubated for 3-5 hours at 37° C. After incubation, protein was precipitated from aliquots of each chamber and the concentration of test compound in the supernatant of the plasma-containing compartment (cserum) and of the buffer-containing compartment (cbuffer) was determined by LC-MS. The fraction of unbound test compound (not bound to plasma) (fu) was calculated according to the following equation: […]
Background: In equilibrium dialysis only unbound substance equilibrates across the membrane.

The term IC50 denotes the concentration that gives 50% inhibition. Read a high IC50 as a need for much substance.

For the compound `C[C@H]1CN(C)CCN1c1cccc(-c2noc([C@@]3(C)CCCc4sc(N)c(C#N)c43)n2)n1` [Example V-1], the IC50 in series [1] came to 7240 nM; in series [2], 8470 nM; in series [3] it was 52 nM; in series [4], 4800 nM. The fraction unbound in series [5] amounted to 0.21.

Regarding `COCCCN1CCCN(c2nccc(-c3noc([C@@]4(C)CCCc5sc(N)c(C#N)c54)n3)n2)[C@@H](C)C1` [Example V-2], the IC50 in series [3] was 6 nM.

With `C[C@H](Oc1cccc(-c2noc([C@@]3(C)CCCc4sc(N)c(C#N)c43)n2)n1)[C@@H]1CCCN1C` [Example V-8], the IC50 in series [1] was determined as 3950 nM; in series [2], 1430 nM; in series [3], 9 nM; in series [4] it was 6650 nM. For the same compound, the fraction unbound in series [5] worked out at 0.51.

In the case of `C[C@H](Oc1ccnc(-c2noc([C@@]3(C)CCCc4sc(N)c(C#N)c43)n2)n1)[C@@H]1CCCN1C` [Example V-11], the IC50 in series [1] was 3700 nM; in series [2], 193 nM; in series [4] it was 737 nM. Further, in series [5], the fraction unbound was 0.61.

In the case of `C[C@H]1CN(C)CCN1c1nccc(-c2cc([C@@]3(C)CCCc4sc(N)c(C#N)c43)on2)n1` [Example V-27], the IC50 in series [3] came to 18 nM.

Values taken from patent US20250313553A1, “ANNULATED 2-AMINO-3-CYANO THIOPHENES AND DERIVATIVES FOR THE TREATMENT OF CANCER” (Boehringer Ingelheim Int'l GmbH Corp., priority 2021, published 2025).
